Data taken from ChEMBL document CHEMBL3525940, “The tissue-specific toxicity of methimazole in the mouse olfactory mucosa is partly mediated through target-tissue metabolic activation by CYP2A5” (Drug Metab Dispos, 2011).

How the values were obtained:
Mus musculus [1] = assay: Toxicity in wild-type littermates mouse olfactory mucosa assessed as epithelium loss measured as intact olfactory epithelium at 50 mg/kg, ip by hematoxylin/eosin staining; type: organism-based; parameters: dose 50 mg/kg, route intraperitoneal; conditions: in vivo
Mus musculus [2] = assay: Toxicity in Cyp2a5-null B6 mouse olfactory mucosa assessed as depletion of nonprotein sulfhydryl at 50 mg/kg, ip at 2 hrs relative to vehicle treated control; type: organism-based; parameters: dose 50 mg/kg, route intraperitoneal; conditions: in vivo
Mus musculus [3] = assay: Toxicity in wild-type B6 mouse olfactory mucosa assessed as depletion of nonprotein sulfhydryl at 50 mg/kg, ip at 2 hrs relative to vehicle treated control; type: organism-based; parameters: dose 50 mg/kg, route intraperitoneal; conditions: in vivo
Mus musculus [4] = assay: Toxicity in wild-type mouse olfactory mucosa assessed as epithelium loss at 50 mg/kg, ip by hematoxylin/eosin staining; type: organism-based; parameters: dose 50 mg/kg, route intraperitoneal; conditions: in vivo
Mus musculus [5] = assay: Toxicity in wild-type mouse olfactory mucosa assessed as abnormal nasal cavity and epithelium at 50 mg/kg, ip by hematoxylin/eosin staining; type: organism-based; parameters: dose 50 mg/kg, route intraperitoneal; conditions: in vivo
Mus musculus [6] = assay: Toxicity in wild-type mouse olfactory mucosa assessed as detached epithelium from basement membrane, fractured and disorganized at 50 mg/kg, ip by hematoxylin/eosin staining; type: organism-based; parameters: dose 50 mg/kg, route intraperitoneal; conditions: in vivo
Mus musculus [7] = assay: Toxicity in Cyp2a5-null B6 mouse olfactory mucosa assessed as attached epithelium from basement membrane at 50 mg/kg, ip by hematoxylin/eosin staining; type: organism-based; parameters: dose 50 mg/kg, route intraperitoneal; conditions: in vivo
Mus musculus [8] = assay: Toxicity in Cyp2a5-null B6 mouse olfactory mucosa assessed as abnormal nasal cavity and epithelium at 50 mg/kg, ip by hematoxylin/eosin staining; type: organism-based; parameters: dose 50 mg/kg, route intraperitoneal; conditions: in vivo
Mus musculus [9] = assay: Toxicity in Cyp2a5-null B6 mouse olfactory mucosa assessed as epithelium loss measured as intact olfactory epithelium at 50 mg/kg, ip by hematoxylin/eosin staining; type: organism-based; parameters: dose 50 mg/kg, route intraperitoneal; conditions: in vivo
Mus musculus [10] = assay: Toxicity in wild-type B6 mouse olfactory mucosa assessed as epithelium loss measured as intact olfactory epithelium at 50 mg/kg, ip by hematoxylin/eosin staining; type: organism-based; parameters: dose 50 mg/kg, route intraperitoneal; conditions: in vivo
[11] = Drug metabolism in wild-type mouse olfactory mucosa microsomes assessed as rate of disappearance of compound at 5 uM after 15 mins; type: ADME; conditions: read-out: Drug metabolism
[12] = Drug metabolism in Cyp2a5-null B6 mouse olfactory mucosa microsomes assessed as rate of disappearance of compound at 5 uM after 15 mins; type: ADME; conditions: B6 (C57BL/6), read-out: Drug metabolism

metabolised at 0.25 h, 5 µM [11]: 58.7%
metabolised at 0.25 h, 5 µM [12]: 28.7%
SMILES: Cn1cc[nH]c1=S [METHIMAZOLE]
Activity (Mus musculus [1]): 39.8%
Activity (Mus musculus [2]): 41.5%
Activity (Mus musculus [3]): 51.8%
Activity (Mus musculus [4]): Toxic
Activity (Mus musculus [5]): Toxic
Activity (Mus musculus [6]): Toxic
Activity (Mus musculus [7]): Non-toxic
Activity (Mus musculus [8]): Non-toxic
Activity (Mus musculus [9]): 60.9%
Activity (Mus musculus [10]): 14.6%
